# Measured values taken from patent US9156889B2, “Drug transporter permeating blood-brain barrier, peptide and use thereof” (priority 2011, dated 2015).
# Where no end group is shown, it is not given here.
# Key:
# [1] = tested on: poliovirus (Mahoney strain); type: binding
# [2] = tested on: poliovirus (Mahoney strain); type: binding; remark: listed apart in the source
# [3] = tested on: poliovirus (Mahoney strain); type: binding; remark: listed apart in the source
# [4] = tested on: Mouse brain capillary endotherial cells (MBEC) 4
# [5] = tested on: Mouse brain capillary endotherial cells (MBEC) 4; remark: listed apart in the source
substance,measurement,setting,value
SEQ ID NO: 6 (TQFPPSRSS; listed as Homo sapiens),binding to poliovirus (western blotting after purification),[1],directly involved with the binding to poliovirus
Strep-mTfR1,binding to poliovirus: band in western blotting after purification,[2],band was detected
same,binding to poliovirus: bands in western blotting after purification,[3],bands were detected
GST-mTfR1 (TQFPPSQSS; not fully specified (N-terminus)),binding to poliovirus: band in western blotting after purification,[2],band was similarly detected
SEQ ID NO: 7 (TQFPPVASS; listed as Homo sapiens),binding to poliovirus (western blotting after purification),[1],directly involved with the binding to poliovirus
fluorescence-labeled transferrin,PS value,[4],0.33
transferrin,effect on the permeation of poliovirus through the blood-brain barrier,[5],inhibits the permeation of poliovirus
dextran,"PS value (permeation rate, permeation activity)",[5],0.20
SEQ ID NO: 8 (TQFPPVESS; listed as Mus musculus),binding to poliovirus (western blotting after purification),[1],directly involved with the binding to poliovirus
